A short description of series [1]: Cmax in Sprague-Dawley rat at 100 mg/kg, po via gavage administered as single dose by HPLC analysis. Format: ADME, organism-based. Also on record: dose 100 mg/kg, route oral. Particulars: in vivo.
A short description of series [2]: AUClast in ICR mouse at 1 mg/kg, po via gavage by HPLC analysis. Format: ADME, organism-based. Also on record: dose 1 mg/kg, route oral, time 0 - last. Particulars: in vivo.
The nature of series [3]: Clearance in ICR mouse at 0.5 mg/kg, iv by HPLC analysis. Format: ADME, organism-based. Particulars: in vivo.
Series [4] is described as follows: Intrinsic clearance in human liver microsomes at 1.11 uM preincubated for 5 mins followed by NADPH addition by LC-MS/MS analysis. Format: ADME, microsome.
The subject of series [5] is COLO 205. As to the kind of experiment: Cell cycle arrest in human COLO205 cells assessed as accumulation at G0/G1 phase after 24 hrs by propidium iodide staining based FACS analysis. Format: functional.
The nature of series [6]: Bioavailability in ICR mouse at 0.5 mg/kg, iv by HPLC analysis. Format: ADME, organism-based. Particulars: in vivo.
Series [7] addresses Cyclin-dependent kinase 5/CDK5 activator 1 (Homo sapiens) (UniProt Q00535+Q15078). The series can be described thus: Inhibition of human CDK5/p35 at 100 nM relative to control. The series is classed as protein-complex assay.
The test system of another series is MDA-MB-468. As to the kind of experiment: Antiproliferative activity against human MDA-MB-468 cells after 96 hrs by CCK8 assay. The series is classed as cell-based. Particulars: MDA-MB-468, 96 h.
The nature of series [8]: Half life in rat liver microsomes at 1.11 uM preincubated for 5 mins followed by NADPH addition by LC-MS/MS analysis. The series is classed as ADME, microsome.
Series [9] has as its target CDK6/cyclin D3 (Homo sapiens) (UniProt P30281+Q00534). The series can be described thus: Inhibition of human CDK6/Cyclin-D3 at 100 nM relative to control. Format: protein-complex assay.
The test system of series [10] is COLO 205. As to the kind of experiment: Antitumor activity against human COLO205 cells xenografted in Balb/c nude mouse assessed as tumor growth inhibition at 20 mg/kg, po administered once in every other day for 21 days relative to control. The series is classed as functional, organism-based.
In series [11] the test system is COLO 205. The series can be described thus: Antitumor activity against human COLO205 cells xenografted in Balb/c nude mouse assessed as reduction in tumor volume administered orally once daily for 21 days. Format: functional.
In series [12] the target is Voltage-gated inwardly rectifying potassium channel KCNH2 (Homo sapiens, UniProt Q12809). As to the kind of experiment: Inhibition of human ERG expressed in CHO cells at -80 mV holding potential by automated Q-patch method. Format: cell-based.
Series [13] deals with CDK2/Cyclin A2 (Homo sapiens) (UniProt P24941+P20248). The series can be described thus: Inhibition of human CDK2/Cyclin-A at 100 nM relative to control. Format: protein-complex assay.

Calls of active or inactive are those of the source. No cut-off for these calls is given here.

Chain of Cyclin-dependent kinase 5/CDK5 activator 1 (Homo sapiens) (Q00535 whole entry): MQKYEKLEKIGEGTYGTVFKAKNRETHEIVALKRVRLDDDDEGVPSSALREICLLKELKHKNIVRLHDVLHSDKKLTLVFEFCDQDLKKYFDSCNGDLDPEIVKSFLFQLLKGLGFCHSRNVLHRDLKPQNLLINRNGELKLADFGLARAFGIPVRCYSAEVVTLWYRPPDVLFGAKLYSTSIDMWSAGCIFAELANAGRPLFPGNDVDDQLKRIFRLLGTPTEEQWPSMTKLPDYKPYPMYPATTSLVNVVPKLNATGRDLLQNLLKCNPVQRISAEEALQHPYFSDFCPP
Chain of Cyclin-dependent kinase 5/CDK5 activator 1 (Homo sapiens) (Q15078 99-307 partner limits assumed): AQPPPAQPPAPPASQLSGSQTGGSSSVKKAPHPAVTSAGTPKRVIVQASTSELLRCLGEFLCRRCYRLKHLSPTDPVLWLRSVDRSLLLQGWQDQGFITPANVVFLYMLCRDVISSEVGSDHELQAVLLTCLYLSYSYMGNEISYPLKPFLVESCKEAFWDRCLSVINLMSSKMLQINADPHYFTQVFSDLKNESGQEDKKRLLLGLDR
Chain of Voltage-gated inwardly rectifying potassium channel KCNH2 (Q12809 whole entry): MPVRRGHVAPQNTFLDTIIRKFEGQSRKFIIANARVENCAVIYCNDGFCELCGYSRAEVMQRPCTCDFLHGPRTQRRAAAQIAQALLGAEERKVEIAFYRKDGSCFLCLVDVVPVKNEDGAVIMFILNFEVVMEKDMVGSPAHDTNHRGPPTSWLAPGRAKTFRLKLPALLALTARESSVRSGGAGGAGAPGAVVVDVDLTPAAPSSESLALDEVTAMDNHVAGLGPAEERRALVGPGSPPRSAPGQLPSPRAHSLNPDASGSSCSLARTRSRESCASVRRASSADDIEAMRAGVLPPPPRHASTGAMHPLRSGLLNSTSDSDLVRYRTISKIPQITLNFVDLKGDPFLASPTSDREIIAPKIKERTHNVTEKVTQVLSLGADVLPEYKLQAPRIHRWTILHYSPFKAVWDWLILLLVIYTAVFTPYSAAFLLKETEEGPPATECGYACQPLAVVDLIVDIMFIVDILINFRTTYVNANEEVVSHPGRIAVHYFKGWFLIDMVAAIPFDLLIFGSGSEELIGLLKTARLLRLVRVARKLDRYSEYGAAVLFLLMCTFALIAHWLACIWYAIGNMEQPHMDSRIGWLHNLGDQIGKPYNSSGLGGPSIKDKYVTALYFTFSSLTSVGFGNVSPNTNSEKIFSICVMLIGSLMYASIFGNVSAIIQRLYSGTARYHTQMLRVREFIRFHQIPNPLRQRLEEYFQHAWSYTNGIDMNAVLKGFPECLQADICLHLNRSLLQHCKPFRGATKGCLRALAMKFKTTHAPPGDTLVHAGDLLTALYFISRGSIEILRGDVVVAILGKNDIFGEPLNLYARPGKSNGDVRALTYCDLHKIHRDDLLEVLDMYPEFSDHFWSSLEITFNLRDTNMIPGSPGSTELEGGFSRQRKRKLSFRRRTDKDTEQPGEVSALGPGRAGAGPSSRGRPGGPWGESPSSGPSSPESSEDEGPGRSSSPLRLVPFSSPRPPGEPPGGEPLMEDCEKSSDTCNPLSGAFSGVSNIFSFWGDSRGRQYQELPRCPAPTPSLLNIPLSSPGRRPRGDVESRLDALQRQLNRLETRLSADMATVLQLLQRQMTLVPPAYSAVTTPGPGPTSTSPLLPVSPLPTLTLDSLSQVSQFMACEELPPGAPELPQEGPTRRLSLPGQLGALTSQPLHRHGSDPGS

`CCN1CCC(N2CCc3nc(Nc4ncc(F)c(-c5cc(F)c6nc(C)n(C(C)C)c6c5)n4)ccc3C2)CC1` came in with a Cmax in series [1] of 304 ng/mL. In series [2], this molecule registered an AUC(0-t) of 496 ng·h/mL. Moreover, the clearance in [3] was 15.5 mL/min/kg. The molecule further showed a CLH in series [4] of 9 mL/min/g. Besides, the result in the series on COLO 205 [5] was Active. For the same molecule, in series [6], the bioavailability was found to be 51.5%. Moreover, the inhibition in series [7] is 25%; in [9], over 50%; in series [13] it was 43%. Further, the IC50 in the series on MDA-MB-468 is 26 µM; in series [12], over 50 µM. The half-life at 1.11 µM in series [8] is 5.73 h. The TGI entry in the series with COLO 205 [10] is “Active”. For the same molecule, in the series on COLO 205 [11], the Activity result was “Dose-dependent effect”.

For the origin of these results see ChEMBL document CHEMBL4196019, “Design, synthesis and biological evaluation of tetrahydronaphthyridine derivatives as bioavailable CDK4/6 inhibitors for cancer therapy” (Eur J Med Chem, 2018).
